The source made the active and inactive calls.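 How the source made its calls: active means tumour findings in long-term animal cancer tests in more than one sex, species or organ; inactive means no tumour finding and more than one negative test.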
Experiment: DSSTox (CPDBAS) Carcinogenic Potency Database Summary MultiCellCall Results
Settings: animal carcinogenicity bioassays, multi-cell call summary
Method in brief: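 Summary call drawn from chronic long-term cancer bioassays in rats, mice, hamsters, dogs and nonhuman primates, using the most positive result per sex-species. Score: multispecies=50, multisex=30, multisite=20, summed for combinations.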
For `CC(=O)N(O)c1ccc2c(c1)Cc1ccccc1-2`, the outcome was “active; multisite active; multisex active; multispecies active”.
In the case of `O=C1C(Cl)=C(Cl)C(=O)C(Cl)=C1Cl`, the outcome is reported as “inactive; multisex inactive”.
With `ClC1=C(Cl)[C@]2(Cl)[C@@H]3[C@H]4C[C@H]([C@@H]5O[C@H]45)[C@@H]3[C@@]1(Cl)C2(Cl)Cl` the outcome was “inactive; multisex inactive; multispecies inactive”.
For `COc1ccc(C)cc1N`, the outcome was “active; multisite active; multisex active; multispecies active”.
With `O=S(=O)(O)c1cc(S(=O)(=O)O)c2c(N=Nc3ccccc3)c(O)ccc2c1` the outcome was “inactive; multisex inactive; multispecies inactive”.
In the case of `N[C@@H](Cc1cnc[nH]1)C(=O)O`, the outcome is reported as “inactive; multisex inactive”.
In the case of `COc1ccc(CCN2CCC(Nc3nc4ccccc4n3Cc3ccc(F)cc3)CC2)cc1`, the outcome is reported as “inactive; multisex inactive; multispecies inactive”.
With `FC(F)(Cl)Cl` the outcome was “inactive; multisex inactive; multispecies inactive”.
With `CN(C)CCOc1ccc(/C(=C(/CCCl)c2ccccc2)c2ccccc2)cc1` the outcome was “inactive; multisex inactive”.
With `CC(=O)CN(CC(C)=O)N=O` the outcome was “active; multisite active; multisex active”.
For `P`, the outcome was “inactive; multisex inactive”.
For `O=P(OCCCl)(OCCCl)OCCCl`, the outcome was “active; multisite active; multisex active; multispecies active”.
In the case of `CN1CCC[C@H]1c1cccnc1`, the outcome is reported as “inactive; multisex inactive”.
In the case of `C[C@@H]1C/C=C/C=C/C=C/C=C/[C@H](O[C@@H]2O[C@H](C)[C@@H](O)[C@H](N)[C@@H]2O)C[C@@H]2O[C@](O)(C[C@@H](O)C[C@H]3O[C@@H]3/C=C/C(=O)O1)C[C@H](O)[C@H]2C(=O)O`, the outcome is reported as “inactive; multisex inactive”.
With `CCN(Cc1cccc(S(=O)(=O)[O-])c1)c1ccc(C(=C2C=CC(=[N+](C)C)C=C2)c2ccc(N(CC)Cc3cccc(S(=O)(=O)O)c3)cc2)cc1` the outcome was “active; multisite active”.
With `OB(O)O` the outcome was “inactive; multisex inactive”.
For `CS(=O)(=O)OCCCNCCCOS(C)(=O)=O`, the outcome was “inactive; multisex inactive; multispecies inactive”.
In the case of `Oc1cccc2cccnc12.Oc1cccc2cccnc12.[Cu]`, the outcome is reported as “inactive; multisex inactive”.
In the case of `C#C[C@]1(OC(C)=O)CC[C@H]2[C@@H]3CCC4=C[C@@H](OC(C)=O)CC[C@@H]4[C@H]3CC[C@@]21C`, the outcome is reported as “inactive; multispecies inactive”.
With `CN(CCCC(=O)c1cccnc1)N=O` the outcome was “active; multisite active”.
In the case of `Nc1ncn([C@@H]2O[C@H](CO)[C@@H](O)[C@H]2O)c(=O)n1`, the outcome is reported as “active; multisite active; multisex active; multispecies active”.
In the case of `Oc1ccc2ccccc2c1N=Nc1ccccc1`, the outcome is reported as “active; multisex active”.
For `Nc1ccc(-c2ccc(N)c(Cl)c2)cc1Cl`, the outcome was “active; multisite active; multisex active; multispecies active”.
For `CC#N`, the outcome was “inactive; multisex inactive; multispecies inactive”.
With `N[C@@H](CS)C(=O)O` the outcome was “inactive; multisex inactive”.
For `c1ccncc1`, the outcome was “active; multisite active; multisex active; multispecies active”.
For `NCCCCCCCCCCC(=O)O`, the outcome was “active; multisite active”.
In the case of `Cc1nnc2n1-c1sc(CCc3ccc(CC(C)C)cc3)cc1C(c1ccccc1Cl)=NC2C` (centres undefined), the outcome is reported as “inactive; multisex inactive”.
In the case of `NNC(=O)c1ccncc1`, the outcome is reported as “active; multisite active; multisex active; multispecies active”.
For `Cc1cnc(NC(=O)C2=C(O)c3ccccc3S(=O)(=O)N2C)s1`, the outcome was “inactive; multisex inactive”.
With `O=C1C=CC(=O)C=C1` the outcome was “active; multisex active”.
For `O=C(O)c1ccncc1`, the outcome was “inactive; multisex inactive; multispecies inactive”.
With `O=CNNC=O` the outcome was “active; multisex active”.
With `C[C@]12C/C(=C/O)C(=O)C[C@@H]1CC[C@@H]1[C@@H]2CC[C@@]2(C)[C@H]1CC[C@]2(C)O` the outcome was “active; multisite active”.
For `CCNc1nc(Cl)nc(NC(C)C)n1`, the outcome was “active; multisite active; multisex active”.
With `C[C@]12CC[C@H](O)CC1=CC[C@@H]1[C@@H]2CC[C@]2(C)C(=O)CC[C@@H]12` the outcome was “active; multisex active”.
For `Cc1cccn2c1nc1ccc(N)nc12`, the outcome was “active; multisite active; multisex active; multispecies active”.
In the case of `Cc1ccc2ncccc2c1`, the outcome is reported as “inactive; multisex inactive”.
With `O=C([O-])C(=O)O.O=C([O-])C(=O)O.[K+].[K+].[O]=[Ti]` the outcome was “inactive; multisex inactive”.
For `Cc1cc2c(nc1N)[nH]c1ccccc12`, the outcome was “active; multisite active; multisex active; multispecies active”.
In the case of `NC(N)=Nc1nc(CSCCNc2nsnc2N)cs1`, the outcome is reported as “active; multisex active”.
With `O=NN(c1ccccc1)c1ccccc1` the outcome was “active; multisex active”.
With `S=C(NC1CCCCC1)NC1CCCCC1` the outcome was “inactive; multisex inactive; multispecies inactive”.
With `O=S(=O)(Oc1ccc(Cl)cc1)c1ccc(Cl)cc1` the outcome was “inactive; multisex inactive”.
In the case of `FC(F)(F)C(Cl)Cl`, the outcome is reported as “active; multisite active; multisex active”.
In the case of `C=CC(=O)O`, the outcome is reported as “inactive; multisex inactive”.
With `O=NN1CCCC1c1cccnc1` (centres undefined) the outcome was “active; multisite active; multisex active; multispecies active”.
With `CC1CN(N=O)CC(C)N1C` (centres undefined) the outcome was “active; multisite active; multisex active; multispecies active”.
For `Nc1ccc(Sc2ccc(N)cc2)cc1`, the outcome was “active; multisite active; multisex active; multispecies active”.
For `Cc1cccc(Nc2cc(Cl)nc(SCC(=O)O)n2)c1C`, the outcome was “active; multispecies active”.
For `C1CCCNCCC1`, the outcome was “inactive; multisex inactive”.
In the case of `OC[C@H]1O[C@@H]2O[C@H]3[C@H](O)[C@@H](O)[C@@H](O[C@H]4[C@H](O)[C@@H](O)[C@@H](O[C@H]5[C@H](O)[C@@H](O)[C@@H](O[C@H]6[C@H](O)[C@@H](O)[C@@H](O[C@H]7[C@H](O)[C@@H](O)[C@@H](O[C@H]8[C@H](O)[C@@H](O)[C@@H](O[C@H]1[C@H](O)[C@H]2O)O[C@@H]8CO)O[C@@H]7CO)O[C@@H]6CO)O[C@@H]5CO)O[C@@H]4CO)O[C@@H]3CO`, the outcome is reported as “inactive; multisex inactive; multispecies inactive”.
With `CCCCN(CCCC)C(=S)[S-].CCCCN(CCCC)C(=S)[S-].[Ni+2]` the outcome was “inactive; multisex inactive”.
For `ClC(Cl)C(Cl)Cl`, the outcome was “active; multisex active”.
For `O=C1O[C@H]([C@H](O)CO)C(O)=C1O`, the outcome was “inactive; multisex inactive; multispecies inactive”.
In the case of `Cc1c(N(C)CS(=O)(=O)O)c(=O)n(-c2ccccc2)n1C`, the outcome is reported as “active; multisex active”.
In the case of `CC/C=C(/CC)[N+](=O)[O-]`, the outcome is reported as “active; multispecies active”.
In the case of `OCc1ccco1`, the outcome is reported as “active; multisite active; multispecies active”.
For `Cc1cc(Cl)ccc1N`, the outcome was “active; multisex active”.
With `O=NN1CCSCC1` the outcome was “active; multisite active; multisex active”.
In the case of `c1ccc2c(c1)cc1ccc3cccc4ccc2c1c34`, the outcome is reported as “active; multisite active; multisex active; multispecies active”.
For `C#CC(OC(N)=O)(c1ccccc1)c1ccc(Cl)cc1` (centres undefined), the outcome was “active; multisite active”.
For `O=[N+]([O-])c1ccc(NCCO)c(OCCO)c1`, the outcome was “inactive; multisex inactive; multispecies inactive”.
With `CC(C)NCC(O)COc1ccc(CC(N)=O)cc1` (centres undefined) the outcome was “inactive; multisex inactive”.
For `CC(=O)C(N=Nc1ccc(-c2ccc(N=NC(C(C)=O)C(=O)Nc3ccccc3)c(Cl)c2)cc1Cl)C(=O)Nc1ccccc1` (centres undefined), the outcome was “inactive; multisex inactive; multispecies inactive”.
In the case of `Cc1cn([C@H]2C[C@H](N=[N+]=[N-])[C@@H](CO)O2)c(=O)[nH]c1=O`, the outcome is reported as “active; multispecies active”.
With `CCCN(N)C=O` the outcome was “active; multisite active; multisex active”.
With `S=C=Nc1ccccc1` the outcome was “inactive; multisex inactive”.
For `CC1=CC(=O)CC(C)(C)C1`, the outcome was “active; multisite active”.
With `CCN(C)N=O` the outcome was “active; multisite active”.
For `c1ccc2n[nH]nc2c1`, the outcome was “inactive; multisex inactive; multispecies inactive”.
With `COc1cc(/C=N/NC(=O)c2ccncc2)ccc1O` the outcome was “active; multisite active”.
In the case of `COc1cc2c(c3oc(=O)c4c(c13)CCOC4=O)C1C=COC1O2` (centres undefined), the outcome is reported as “active; multisite active; multispecies active”.
With `CC(C)(C)c1cc(CO)cc(C(C)(C)C)c1O` the outcome was “inactive; multisex inactive”.
For `O=NO`, the outcome was “active; multisite active; multisex active”.
With `O=NN1CCNCC1` the outcome was “active; multisite active; multisex active”.
For `Nc1cc(S(=O)(=O)[O-])cc2cc(S(=O)(=O)[O-])c(N=Nc3ccc(-c4ccc(N=Nc5c(S(=O)(=O)[O-])cc6cc(S(=O)(=O)[O-])cc(N)c6c5O)c(O)c4)cc3O)c(O)c12.[Cu].[Cu].[Na+].[Na+].[Na+].[Na+]`, the outcome was “active; multisite active; multisex active; multispecies active”.
In the case of `CS(=O)(=O)c1ccc([C@@H](O)[C@@H](CO)NC(=O)C(Cl)Cl)cc1`, the outcome is reported as “inactive; multisex inactive”.
For `Clc1ccc(C(c2ccccc2Cl)C(Cl)Cl)cc1` (centres undefined), the outcome was “inactive; multisex inactive”.
In the case of `O=[As](O)(O)O`, the outcome is reported as “inactive; multispecies inactive”.
For `CCNN`, the outcome was “active; multisite active; multisex active”.
In the case of `CBr`, the outcome is reported as “inactive; multisex inactive; multispecies inactive”.
With `CCN(N=O)C(=O)NCC(C)=O` the outcome was “active; multisite active; multisex active; multispecies active”.
In the case of `ClC1(Cl)C2(Cl)C3(Cl)C4(Cl)C(Cl)(Cl)C5(Cl)C3(Cl)C1(Cl)C5(Cl)C24Cl` (centres undefined), the outcome is reported as “active; multisite active; multisex active; multispecies active”.
In the case of `ClC1=C(Cl)C2(Cl)C3C(Cl)C=CC3C1(Cl)C2(Cl)Cl` (centres undefined), the outcome is reported as “active; multisex active”.
For `C=CCN(CC=C)N=O`, the outcome was “active; multisex active; multispecies active”.
In the case of `Nc1nc(/C=C/c2ccc([N+](=O)[O-])o2)no1`, the outcome is reported as “active; multisite active; multisex active”.
In the case of `C=CCc1ccc2c(c1)OCO2`, the outcome is reported as “active; multisex active; multispecies active”.
In the case of `O=C1OC(O)C(C(Cl)Cl)=C1Cl` (centres undefined), the outcome is reported as “active; multisite active; multisex active”.
In the case of `C=CC(OCC)OCC`, the outcome is reported as “inactive; multisex inactive”.
For `Nc1ccc(-c2ccc(N)c(N)c2)cc1N`, the outcome was “active; multisite active; multispecies active”.
With `CCCCC(CC)COC(=O)COc1ccc(Cl)cc1Cl` (centres undefined) the outcome was “inactive; multisex inactive”.
With `Oc1ccccc1O` the outcome was “active; multisex active; multispecies active”.
With `Cc1ccc(N=C=O)cc1N=C=O` the outcome was “active; multisite active; multisex active; multispecies active”.

Source: PubChem BioAssay AID1205 (EPA DSSTox, 2008)
